Results as given in US20240116985A1, “STAPLED PEPTIDES AND METHODS THEREOF” (priority 2020, published 2024).
pIC50: −log10 of the molar value.

Assays:
[1] = target: T1, full-length beta-Catenin (Uniprot ID P35222) (Homo sapiens, UniProt P35222); assay: Fluorescence polarization IC50 (beta-catenin / 5FAM-TCF4 10-53 competition); type: binding; conditions: fluorescence polarization; read-out: beta-Catenin FP IC50
T1 construct: 10 nM full-length beta-Catenin (Uniprot ID P35222)
T1 sequence (P35222 1-781): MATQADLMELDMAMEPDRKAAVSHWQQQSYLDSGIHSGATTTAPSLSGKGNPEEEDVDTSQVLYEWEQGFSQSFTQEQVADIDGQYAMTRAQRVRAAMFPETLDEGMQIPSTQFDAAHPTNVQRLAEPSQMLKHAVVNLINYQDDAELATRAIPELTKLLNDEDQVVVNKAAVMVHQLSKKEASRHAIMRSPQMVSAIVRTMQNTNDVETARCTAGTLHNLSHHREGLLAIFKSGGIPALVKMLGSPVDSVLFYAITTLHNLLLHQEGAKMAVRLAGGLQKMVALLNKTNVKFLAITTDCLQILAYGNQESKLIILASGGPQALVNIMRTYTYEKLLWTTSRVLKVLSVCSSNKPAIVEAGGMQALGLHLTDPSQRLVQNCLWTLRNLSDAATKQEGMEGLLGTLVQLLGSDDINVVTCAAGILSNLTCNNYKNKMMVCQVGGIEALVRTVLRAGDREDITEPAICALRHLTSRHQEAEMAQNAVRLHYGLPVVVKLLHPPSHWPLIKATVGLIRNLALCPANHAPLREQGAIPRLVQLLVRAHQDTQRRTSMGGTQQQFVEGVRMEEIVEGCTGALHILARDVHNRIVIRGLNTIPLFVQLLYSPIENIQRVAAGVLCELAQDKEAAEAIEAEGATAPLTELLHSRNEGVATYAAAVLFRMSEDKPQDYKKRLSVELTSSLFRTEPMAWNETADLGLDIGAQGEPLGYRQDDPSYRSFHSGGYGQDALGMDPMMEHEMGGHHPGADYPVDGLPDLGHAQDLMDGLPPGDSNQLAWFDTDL

[2] = target: T2, beta-catenin/TCF4 engagement (Homo sapiens, UniProt P35222); assay: Nano-BRET target engagement assay (B-cat-Halo & TCF4-Luc in HEK293 cells); type: cell-based; conditions: absolute IC50; read-out: NanoBRET Abs IC50
T2 construct: expressed in transfected cells; host or cells: HEK293
T2 sequence (P35222 1-781): T1 sequence (P35222 1-781)

SMILES	pIC50 [1]	pIC50 [2]
CC(=O)N1CCC[C@]12CC=CCCCC1(CCCC=CCCCOC(=O)N3CC[C@@](C(=O)N[C@@H](Cc4ccsc4)C(=O)N[C@@H](Cc4csc5ccccc45)C(=O)N[C@@H](CCC(N)=O)C(N)=O)(C3)NC(=O)[C@H](CC(C)C)NC(=O)[C@H](Cc3ccccc3)NC(=O)[C@H](C)NC(=O)[C@H](C)NC(=O)[C@H](CN(C)CC(=O)O)NC(=O)[C@H](CC(=O)O)NC1=O)NC(=O)[C@H](CC(C)(C)C)NC(=O)[C@H](CC(=O)O)NC2=O (stereo partly drawn) [I-1631, Ac-PL3-Asp-Npg-B5-Asp-[Me]GA-Ala-Ala-Phe-Leu-PyrS2-3Thi-BztA-Gln-NH2]	8.00	4.52
CC(=O)N1CCC[C@]12CC=CCCCC1(CCCC=CCCCOC(=O)N3CC[C@@](C(=O)N[C@@H](Cc4ccccc4C(F)(F)F)C(=O)N[C@@H](Cc4csc5ccccc45)C(=O)N[C@@H](CCC(=O)N(C)C)C(N)=O)(C3)NC(=O)[C@H](Cc3ccccc3)NC(=O)[C@H](Cc3ccccc3)NC(=O)[C@H](C)NC(=O)[C@H](C)NC(=O)[C@H](Cc3cccc(C(=O)O)c3)NC(=O)[C@H](CC(=O)O)NC1=O)NC(=O)[C@H](CC(C)(C)C)NC(=O)[C@H](CC(=O)O)NC2=O (stereo partly drawn) [I-2534, Ac-PL3-Asp-Npg-B5-Asp-3COOHF-Ala-Ala-Phe-Phe-PyrS2-2F3MeF-BztA-Me2Gln-NH2]	7.68	5.36
C[C@@H]1NC(=O)[C@H](C)NC(=O)[C@H](CC(=O)O)NC(=O)[C@H](CC(=O)O)NC(=O)C2(CCCC=CCCCOC(=O)N3CC[C@@](C(=O)N[C@@H](Cc4ccsc4)C(=O)N[C@@H](Cc4csc5ccccc45)C(=O)N[C@@H](CCC(N)=O)C(N)=O)(C3)NC(=O)[C@H](CC(N)=O)NC(=O)[C@H](Cc3ccccc3)NC1=O)CCCC=CCCC(=O)OC1CC(C(=O)N[C@@H](CC(=O)O)C(=O)N[C@@H](CC(C)(C)C)C(=O)N2)N(S(C)(=O)=O)C1 (stereo partly drawn) [I-1574, MeSO2-HypEs5-Asp-Npg-B5-Asp-Asp-Ala-Ala-Phe-Asn-PyrS2-3Thi-BztA-Gln-NH2]	7.82	< 4.70
CC(=O)N1CCC[C@]12CC=CCCCC1(CCCC=CCCCOC(=O)N3CC[C@@](C(=O)N[C@@H](Cc4ccccc4C(F)(F)F)C(=O)N[C@@H](Cc4ccc5c(c4)CCC5)C(=O)N[C@@H](C)C(N)=O)(C3)NC(=O)[C@H](CC(C)C)NC(=O)[C@H](Cc3ccccc3)NC(=O)[C@H](C)NC(=O)[C@H](CCC(N)=O)NC(=O)[C@H](Cc3cccc(C(=O)O)c3)NC(=O)[C@H](CC(=O)O)NC1=O)NC(=O)[C@H](CC(C)(C)C)NC(=O)[C@H](CC(=O)O)NC2=O (stereo partly drawn) [I-2298, Ac-PL3-Asp-Npg-B5-Asp-3COOHF-Gln-Ala-Phe-Leu-PyrS2-2F3MeF-5IndA-Ala-NH2]	8.10	5.34
CCCC[C@@H]1NC(=O)[C@H](Cc2ccccc2)NC(=O)[C@H](C)NC(=O)[C@H](C)NC(=O)[C@H](CN(CC(=O)O)CC(F)(F)F)NC(=O)[C@H](CC(=O)O)NC(=O)C2(CCCC=CCCCOC(=O)N3CC[C@@](C(=O)N[C@@H](Cc4ccsc4)C(=O)N[C@@H](Cc4csc5ccccc45)C(=O)N[C@@H](CCC(N)=O)C(N)=O)(C3)NC1=O)CCCC=CC[C@]1(CCCN1C(C)=O)C(=O)N[C@@H](CC(=O)O)C(=O)N[C@@H](CC(C)(C)C)C(=O)N2 (stereo partly drawn) [I-1776, Ac-PL3-Asp-Npg-B5-Asp-TfeGA-Ala-Ala-Phe-nLeu-PyrS2-3Thi-BztA-Gln-NH2]	7.77	4.98
CC(=O)N1CCC[C@]12CC=CCCCC1(CCCC=CCCCOC(=O)N3CC[C@@](C(=O)N[C@@H](Cc4ccsc4)C(=O)N[C@@H](Cc4csc5ccccc45)C(=O)N[C@@H](CCC(N)=O)C(N)=O)(C3)NC(=O)[C@H](CC(N)=O)NC(=O)[C@H](Cc3ccccc3)NC(=O)[C@H](C)NC(=O)[C@H](C)NC(=O)[C@H](CNCC(=O)O)NC(=O)[C@H](CC(=O)O)NC1=O)NC(=O)[C@H](CC(C)(C)C)NC(=O)[C@H](CC(=O)O)NC2=O (stereo partly drawn) [I-1733, Ac-PL3-Asp-Npg-B5-Asp-GA-Ala-Ala-Phe-Asn-PyrS2-3Thi-BztA-Gln-NH2]	7.82	< 4.70
